Results reported in BindingDB's records for doi:10.1016/j.ejmech.2020.112337 (Paris-Saclay University, 2020).
pEC50: −log10 of the molar value.

Legend:
[1] = Inhibition of RIPK1 in human FADD-deficient Jurkat I 2.1 cells assessed as protection against TNFalpha-induced necroptosis measured after 24 hrs by MTS assay
[2] = Inhibition of RIPK1 in human FADD-deficient Jurkat I 2.1 cells assessed as reduction in TNFalpha-induced necroptosis measured after 24 hrs by MTS assay

Row | SMILES | pEC50 [1] | pEC50 [2]
1 | CCCCNc1nc2cc([N+](=O)[O-])ccc2s1 | 5.33 | –
2 | CCCCNc1nc2ccc([N+](=O)[O-])cc2s1 | 5.16 | –
3 | O=[N+]([O-])c1ccc2nc(Nc3ccccc3)[nH]c2c1 | 5.60 | –
4 | CCCNc1nc2ccc([N+](=O)[O-])cc2[nH]1 | 4.84 | –
5 | CCCCNc1nc2cccc(C(=O)OC)c2[nH]1 | 4.74 | –
6 | CCCCNc1nc2ccc([N+](=O)[O-])cc2[nH]1 | 5.77 | 5.77
7 | CC(C)Nc1nc2ccc([N+](=O)[O-])cc2[nH]1 | < 4.60 | –
8 | Clc1ccc2nc(NC3CCCCC3)[nH]c2c1 | 5.36 | –
9 | O=[N+]([O-])c1ccc2nc(NC3CCCCC3)[nH]c2c1 | 5.98 | –
10 | COC(=O)c1cccc2nc(NC3CCCCC3)[nH]c12 | 5.05 | –
